Experiments:
Assay in all cases: NCI60 cell line screen (SRB)
Type in all cases: cell-based, human
[1] = system: 786-0; conditions: 786-0, Renal Cancer, 48 h
Method: (§1) This panel implements the NCI60 cell line screen, including leukemia, non-small cell lung cancer, colon cancer, central nervous system cancer, melanoma, ovarian cancer, renal cancer, prostate cancer and breast cancer. The cell lines tested are specified in Table 3.
(§2) Generally, the human tumor cell lines of the cancer screening panel are grown in RPMI 1640 medium containing 5% fetal bovine serum and 2 mM L-glutamine. For a typical screening experiment, cells are inoculated into 96 well microtiter plates in 100 μL at plating densities ranging from 5,000 to 40,000 cells/well depending on the doubling time of individual cell lines. After cell inoculation, the microtiter plates are incubated at 37° C., 5% CO2, 95% air and 100% relative humidity for 24 h prior to addition of experimental drugs. After 24 h, two plates of each cell line are fixed in situ with TCA, to represent a measurement of the cell population for each cell line at the time of drug addition (Tz). Experimental drugs are solubilized in dimethyl sulfoxide at 400-fold the desired final maximum test concentration and stored frozen prior to use. At the time of drug addition, an aliquot of frozen concentrate is thawed and diluted to twice the desired final maximum test concentration with complete medium containing 50 μg/ml gentamicin. Additional four, 10-fold or ½ log serial dilutions are made to provide a total of five drug concentrations plus control. Aliquots of 100 μl of these different drug dilutions are added to the appropriate microtiter wells already containing 100 μl of medium, resulting in the required final drug concentrations.
(§3) Following drug addition, the plates are incubated for an additional 48 h at 37° C., 5% CO2, 95% air, and 100% relative humidity. For adherent cells, the assay is terminated by the addition of cold TCA. Cells are fixed in situ by the gentle addition of 50 μl of cold 50% (w/v) TCA (final concentration, 10% TCA) and incubated for 60 minutes at 4° C. The supernatant is discarded, and the plates are washed five times with tap water and air dried. Sulforhodamine B (SRB) solution (100 μl) at 0.4% (w/v) in 1% acetic acid is added to each well, and plates are incubated for 10 minutes at room temperature. After staining, unbound dye is removed by washing five times with 1% acetic acid and the plates are air dried. Bound stain is subsequently solubilized with 10 mM trizma base, and the absorbance is read on an automated plate reader at a wavelength of 515 nm. For suspension cells, the methodology is the same except that the assay is terminated by fixing settled cells at the bottom of the wells by gently adding 50 μl of 80% TCA (final concentration, 16% TCA). Using the seven absorbance measurements (time zero, Tz, control growth, (control), and test growth in the presence of drug at the five concentration levels (Ti)), the percentage growth is calculated at each of the drug concentrations levels. Percentage growth inhibition is calculated as:
(§4) [(Ti−Tz)/(C−Tz)]×100 for concentrations for which Ti>/=Tz
(§5) [(Ti−Tz)/Tz]×100 for concentrations for which Ti<Tz.

[2] = system: ACHN; conditions: Renal Cancer, 48 h
Method: as §1, §2, §3, §4, §5

[3] = system: BT-459; conditions: BT-459, Breast Cancer, 48 h
Method: as §1, §2, §3, §4, §5

[4] = system: CAKI-1; conditions: CAKI-1, Renal Cancer, 48 h
Method: as §1, §2, §3, §4, §5

[5] = system: CCRF-CEM; conditions: Leukemia, 48 h
Method: as §1, §2, §3, §4, §5

[6] = system: COLO 205; conditions: COLO 205, Colon Cancer, 48 h
Method: as §1, §2, §3, §4, §5

[7] = system: DU-145; conditions: DU-145, Prostate Cancer, 48 h
Method: as §1, §2, §3, §4, §5

[8] = system: HCT-15; conditions: HCT-15, Colon Cancer, 48 h
Method: as §1, §2, §3, §4, §5

[9] = system: HOP-62; conditions: HOP-62, Non-Small Cell Lung Cancer, 48 h
Method: as §1, §2, §3, §4, §5

[10] = system: HOP-92; conditions: HOP-92, Non-Small Cell Lung Cancer, 48 h
Method: as §1, §2, §3, §4, §5

[11] = system: KM12; conditions: KM12, Colon Cancer, 48 h
Method: as §1, §2, §3, §4, §5

[12] = system: M14; conditions: M14, Melanoma, 48 h
Method: as §1, §2, §3, §4, §5

[13] = system: MALME-3M; conditions: Melanoma, 48 h
Method: as §1, §2, §3, §4, §5

[14] = system: MOLT-4; conditions: MOLT-4, Leukemia, 48 h
Method: as §1, §2, §3, §4, §5

[15] = system: NCI-H23; conditions: NCI-H23, Non-Small Cell Lung Cancer, 48 h
Method: as §1, §2, §3, §4, §5

[16] = system: NCI-H552; conditions: NCI-H552, Non-Small Cell Lung Cancer, 48 h
Method: as §1, §2, §3, §4, §5

[17] = system: OVCAR5; conditions: OVCAR5, Ovarian Cancer, 48 h
Method: as §1, §2, §3, §4, §5

[18] = system: RPMO-8226; conditions: RPMO-8226, Leukemia, 48 h
Method: as §1, §2, §3, §4, §5

[19] = system: RXF 393; conditions: RXF 393, Renal Cancer, 48 h
Method: as §1, §2, §3, §4, §5

[20] = system: SF-295; conditions: SF-295, CNS Cancer, 48 h
Method: as §1, §2, §3, §4, §5

[21] = system: SK-MEL-28; conditions: SK-MEL-28, Melanoma, 48 h
Method: as §1, §2, §3, §4, §5

[22] = system: SN12C; conditions: Renal Cancer, 48 h
Method: as §1, §2, §3, §4, §5

[23] = system: SNB-75; conditions: SNB-75, CNS Cancer, 48 h
Method: as §1, §2, §3, §4, §5

[24] = system: TK-10; conditions: TK-10, Renal Cancer, 48 h
Method: as §1, §2, §3, §4, §5

[25] = system: U251; conditions: U251, CNS Cancer, 48 h
Method: as §1, §2, §3, §4, §5

[26] = system: UO-31; conditions: UO-31, Renal Cancer, 48 h
Method: as §1, §2, §3, §4, §5

**Q.** What does the source list for CNC1=CC2=NCCc3c[nH]c(c32)C1=O [Compound 4a]?
**A.** GI50 [1]: 10.5 µM; GI50 [2]: 13.1 µM; GI50 [3]: 7.38 µM; GI50 [4]: 1950 nM; GI50 [5]: 2970 nM; GI50 [6]: 1750 nM; GI50 [7]: 2290 nM; GI50 [8]: 5090 nM; GI50 [9]: 1.28 µM; GI50 [10]: 1280 nM; GI50 [11]: 3830 nM; GI50 [12]: 2570 nM; GI50 [13]: 1210 nM; GI50 [14]: 1970 nM; GI50 [15]: 2460 nM; GI50 [16]: 4130 nM; GI50 [17]: 17.3 µM; GI50 [18]: 5.99 µM; GI50 [19]: 4.22 µM; GI50 [20]: 1210 nM; GI50 [21]: 6.62 µM; GI50 [22]: 3060 nM; GI50 [23]: 1.38 µM; GI50 [24]: 15.4 µM; GI50 [25]: 4.2 µM; GI50 [26]: 14.6 µM

**Q.** What does the source list for O=C(O)C(F)(F)F.O=C1C(NCCc2ccc3c(c2)OCO3)=CC2=NCCc3c[nH]c1c32 [Compound 6]?
**A.** GI50 ([1]; Homo sapiens): 3.98 µM; GI50 ([2]; Homo sapiens): 3.25 µM; GI50 ([3]; Homo sapiens): 3.07 µM; GI50 ([4]; Homo sapiens): 1770 nM; GI50 ([5]; Homo sapiens): 2970 nM; GI50 ([6]; Homo sapiens): 1020 nM; GI50 ([7]; Homo sapiens): 1350 nM; GI50 ([8]; Homo sapiens): 1860 nM; GI50 ([9]; Homo sapiens): 2.5 µM; GI50 ([10]; Homo sapiens): 5450 nM; GI50 ([11]; Homo sapiens): 2290 nM; GI50 ([12]; Homo sapiens): 1430 nM; GI50 ([13]; Homo sapiens): 343 nM; GI50 ([14]; Homo sapiens): 2020 nM; GI50 ([15]; Homo sapiens): 1690 nM; GI50 ([16]; Homo sapiens): 2620 nM; GI50 ([17]; Homo sapiens, OVCAR-5): 2.72 µM; GI50 ([20]; Homo sapiens): 1870 nM; GI50 ([21]; Homo sapiens): 4.91 µM; GI50 ([22]; Homo sapiens): 2690 nM; GI50 ([23]; Homo sapiens): 3.49 µM; GI50 ([24]; Homo sapiens): 4.51 µM; GI50 ([25]; Homo sapiens, U-251): 3.05 µM; GI50 ([26]; Homo sapiens): 5.84 µM

**Q.** Which GI50 ([1]; Homo sapiens) does the source give for COc1ccc(CCNC2=CC3=NCCc4c[nH]c(c43)C2=O)cc1OC.O=C(O)C(F)(F)F [Compound 20] here?
**A.** 5.43 µM

**Q.** What about the GI50 ([2]; Homo sapiens) of the same molecule?
**A.** 4.21 µM

**Q.** And the GI50 ([3]; Homo sapiens)?
**A.** 4.53 µM

**Q.** And the GI50 ([4]; Homo sapiens)?
**A.** 2670 nM

**Q.** And the GI50 ([5]; Homo sapiens)?
**A.** 10600 nM

**Q.** What about the GI50 ([6]; Homo sapiens) of the same molecule?
**A.** 1390 nM

**Q.** What about the GI50 ([7]; Homo sapiens) of the same molecule?
**A.** 2810 nM

**Q.** What about the GI50 ([8]; Homo sapiens) of the same molecule?
**A.** 2650 nM

**Q.** What about the GI50 ([9]; Homo sapiens) of the same molecule?
**A.** 5.17 µM

**Q.** And the GI50 ([10]; Homo sapiens)?
**A.** 1030 nM

**Q.** And the GI50 ([11]; Homo sapiens)?
**A.** 2230 nM

**Q.** What about the GI50 ([12]; Homo sapiens) of the same molecule?
**A.** 2260 nM

**Q.** And the GI50 ([13]; Homo sapiens)?
**A.** 249 nM

**Q.** And the GI50 ([14]; Homo sapiens)?
**A.** 4950 nM

**Q.** What about the GI50 ([15]; Homo sapiens) of the same molecule?
**A.** 2000 nM

**Q.** What about the GI50 ([16]; Homo sapiens) of the same molecule?
**A.** 2240 nM

**Q.** And the GI50 ([17]; Homo sapiens, OVCAR-5)?
**A.** 5.14 µM

**Q.** And the GI50 ([20]; Homo sapiens)?
**A.** 1840 nM

**Q.** And the GI50 ([21]; Homo sapiens)?
**A.** 10.1 µM

**Q.** And the GI50 ([22]; Homo sapiens)?
**A.** 3070 nM

**Q.** And the GI50 ([23]; Homo sapiens)?
**A.** 5.22 µM

**Q.** And the GI50 ([24]; Homo sapiens)?
**A.** 5.1 µM

**Q.** And the GI50 ([25]; Homo sapiens, U-251)?
**A.** 3.44 µM

**Q.** What about the GI50 ([26]; Homo sapiens) of the same molecule?
**A.** 7.11 µM

**Q.** Which results are given for O=C(O)C(F)(F)F.O=C1C(NCc2ccc(F)cc2)=CC2=NCCc3c[nH]c1c32 [Compound 28]?
**A.** GI50 ([1]; Homo sapiens): 3.45 µM; GI50 ([2]; Homo sapiens): 2.04 µM; GI50 ([3]; Homo sapiens): 3.14 µM; GI50 ([4]; Homo sapiens): 329 nM; GI50 ([5]; Homo sapiens): 1430 nM; GI50 ([6]; Homo sapiens): 365 nM; GI50 ([7]; Homo sapiens): 1080 nM; GI50 ([8]; Homo sapiens): 1480 nM; GI50 ([9]; Homo sapiens): 3.79 µM; GI50 ([10]; Homo sapiens): 1680 nM; GI50 ([11]; Homo sapiens): 2020 nM; GI50 ([12]; Homo sapiens): 1440 nM; GI50 ([13]; Homo sapiens): 208 nM; GI50 ([14]; Homo sapiens): 793 nM; GI50 ([15]; Homo sapiens): 521 nM; GI50 ([16]; Homo sapiens): 2000 nM; GI50 ([17]; Homo sapiens, OVCAR-5): 2.37 µM; GI50 ([18]; Homo sapiens): 0.559 µM; GI50 ([19]; Homo sapiens): ≤ 0.01 µM; GI50 ([20]; Homo sapiens): 1060 nM; GI50 ([21]; Homo sapiens): 5.78 µM; GI50 ([22]; Homo sapiens): 1950 nM; GI50 ([23]; Homo sapiens): 5.2 µM; GI50 ([24]; Homo sapiens): 3.19 µM; GI50 ([25]; Homo sapiens, U-251): 1.99 µM; GI50 ([26]; Homo sapiens): 2.59 µM

From patent US20100144779A1, “Marine Alkalod Makaluvamines and Derivatives Thereof” (THE UAB RESEARCH FOUNDATION, priority 2007, published 2010)
